{"source": "paper PMC7273600", "about": "(The Journal of Veterinary Medical Science, 2020)", "key": {"[1]": {"system": "cytochrome P450", "conditions": "five days; for Effect of oral treatment on total CYP content: decrease seen at high dose, P≤0.05; for Total cytochrome content, High dose / Total cytochrome content, Low dose: male SD rats, oral, mean ± SD (n=5); for Total cytochrome content, High dose: one-tenth of LD50; for Total cytochrome content, Low dose: one-thirtieth of LD50"}, "[2]": {"system": "CYP2D6", "conditions": "read-out: IC50 for CYP2D6; human microsomes; cited from earlier work"}, "[3]": {"system": "CYP2C", "assay": "Hepatic microsomal TBH activity after oral administration for five days", "conditions": "five consecutive days, P≤0.05"}, "[4]": {"system": "CYP1A1/2", "conditions": "read-out: IC50 for CYP1A1/2; human microsomes; cited from earlier work"}, "[5]": {"system": "CYP2D", "assay": "Hepatic microsomal BLH activity after oral administration for five days", "conditions": "five consecutive days, P≤0.05"}, "[6]": {"conditions": "ref Food Safety Commission of Japan; cited from earlier work"}, "[7]": {"system": "CYP2B6", "conditions": "read-out: IC50 for CYP2B6; human microsomes; cited from earlier work"}, "[8]": {"system": "CYP3A", "assay": "Hepatic microsomal MDZH activity after oral administration for five days", "conditions": "five consecutive days, P≤0.05"}, "[9]": {"system": "CYP1A", "assay": "Inhibition of ethoxyresorufin O-deethylation", "assay_type": "in vitro ADME", "conditions": "rat hepatic microsomes; for Concentration that evidently inhibited EROD: Fig. 2"}, "[10]": {"system": "CYP1A", "assay": "Hepatic microsomal EROD activity after oral administration for five days", "conditions": "five consecutive days, P≤0.05"}, "[11]": {"system": "CYP2D", "assay": "Inhibition of bufuralol 1'-hydroxylation", "assay_type": "in vitro ADME, rat", "conditions": "at 1,000 µM"}, "[12]": {"system": "CYP3A", "assay": "Inhibition of midazolam 4-hydroxylation", "assay_type": "in vitro ADME, rat", "conditions": "at 1,000 µM"}, "[13]": {"system": "CYP2C", "assay": "Inhibition of tolbutamide hydroxylation", "assay_type": "in vitro ADME, rat", "conditions": "at 1,000 µM"}, "[14]": {"system": "CYP2C8", "conditions": "read-out: IC50 for CYP2C8; human microsomes; cited from earlier work"}, "[15]": {"system": "CYP2C9", "conditions": "read-out: IC50 for CYP2C9; human microsomes; cited from earlier work"}, "[16]": {"system": "CYP2D", "conditions": "read-out: Km of bufuralol reported in rats; cited from earlier work"}, "[17]": {"system": "CYP1A", "conditions": "read-out: Km of ethoxyresorufin reported in rats; cited from earlier work"}, "[18]": {"system": "CYP1A", "conditions": "cited from earlier work"}, "[19]": {"system": "CYP3A", "conditions": "read-out: Km of midazolam reported in rats; cited from earlier work"}, "[20]": {"system": "CYP2C", "conditions": "read-out: Km of tolbutamide reported in rats; cited from earlier work"}, "[21]": {"system": "CYP", "conditions": "hen treated with tribufos; cited from earlier work"}}, "note": "Marks after values point to notes of the source that are not given here.", "data": [{"compound": "CCOP(=S)(OCC)Oc1nc(Cl)c(Cl)cc1Cl", "note": "[Chlorpyrifos, chlorpyrifos]", "values": [{"measurement": "Effect of oral treatment on total CYP content", "setting": "[1]", "result": "significantly decreased"}, {"measurement": "Total cytochrome content, High dose", "setting": "[1]", "result": "1.30 ± 0.48^a) nM/mg protein"}, {"measurement": "Total cytochrome content, Low dose", "setting": "[1]", "result": "1.69 ± 0.18", "unit": "nM/mg protein"}, {"measurement": "IC50", "setting": "[2]", "result": "~3000", "unit": "nM"}, {"measurement": "Microsomal activity of TBH compared with control group", "setting": "[3]", "result": "no significant effects"}, {"measurement": "IC50", "setting": "[4]", "result": "~3000", "unit": "nM"}, {"measurement": "Microsomal activity of BLH compared with control group", "setting": "[5]", "result": "no significant effects"}, {"measurement": "Acceptable daily intake (ADI)", "setting": "[6]", "result": 0.001, "unit": "mg/kg/day"}, {"measurement": "IC50", "setting": "[7]", "result": 2500, "unit": "nM"}, {"measurement": "Microsomal activity of MDZH compared with control group", "setting": "[8]", "result": "no significant effects"}, {"measurement": "Manner of EROD inhibition", "setting": "[9]", "result": "noncompetitive"}, {"measurement": "Concentration that evidently inhibited EROD", "setting": "[9]", "result": "less than 1 µM"}, {"measurement": "Microsomal activity of EROD compared with control group", "setting": "[10]", "result": "no significant effects"}]}, {"compound": "COP(=O)(OC)OC=C(Cl)Cl", "note": "[Dichlorvos, dichlorvos]", "values": [{"measurement": "Effect of oral treatment on total CYP content", "setting": "[1]", "result": "not significantly affected"}, {"measurement": "Total cytochrome content, High dose", "setting": "[1]", "result": "1.75 ± 0.18", "unit": "nM/mg protein"}, {"measurement": "Total cytochrome content, Low dose", "setting": "[1]", "result": "1.69 ± 0.40", "unit": "nM/mg protein"}, {"measurement": "Microsomal activity of TBH compared with control group", "setting": "[3]", "result": "no significant effects"}, {"measurement": "Inhibitory effect on BLH", "setting": "[11]", "result": "not evident"}, {"measurement": "Microsomal activity of BLH compared with control group", "setting": "[5]", "result": "no significant effects"}, {"measurement": "Inhibitory effect on MDZH", "setting": "[12]", "result": "not evident"}, {"measurement": "Microsomal activity of MDZH compared with control group", "setting": "[8]", "result": "no significant effects"}, {"measurement": "Inhibitory effect on TBH", "setting": "[13]", "result": "not evident"}, {"measurement": "Microsomal activity of EROD compared with control group", "setting": "[10]", "result": "no significant effects"}]}, {"compound": "COP(=S)(OC)Oc1ccc([N+](=O)[O-])c(C)c1", "note": "[Fenitrothion, fenitrothion]", "values": [{"measurement": "Effect of oral treatment on total CYP content", "setting": "[1]", "result": "not significantly affected"}, {"measurement": "Total cytochrome content, High dose", "setting": "[1]", "result": "1.18 ± 0.23", "unit": "nM/mg protein"}, {"measurement": "Total cytochrome content, Low dose", "setting": "[1]", "result": "1.38 ± 0.51", "unit": "nM/mg protein"}, {"measurement": "Microsomal activity of TBH compared with control group", "setting": "[3]", "result": "significantly higher"}, {"measurement": "IC50", "setting": "[14]", "result": 4300, "unit": "nM"}, {"measurement": "IC50", "setting": "[15]", "result": 4800, "unit": "nM"}, {"measurement": "IC50", "setting": "[4]", "result": "~3000", "unit": "nM"}, {"measurement": "Acceptable daily intake (ADI)", "setting": "[6]", "result": 0.005, "unit": "mg/kg/day"}, {"measurement": "IC50", "setting": "[7]", "result": 2500, "unit": "nM"}, {"measurement": "Microsomal activity of MDZH compared with control group", "setting": "[8]", "result": "significantly lower"}, {"measurement": "Manner of EROD inhibition", "setting": "[9]", "result": "noncompetitive"}, {"measurement": "Concentration that evidently inhibited EROD", "setting": "[9]", "result": "less than 1 µM"}, {"measurement": "Microsomal activity of EROD compared with control group", "setting": "[10]", "result": "significantly lower"}]}, {"compound": "CCc1cccc2cc(C(O)CNC(C)(C)C)oc12", "note": "(stereo not shown) [bufuralol]", "values": [{"measurement": "Km", "setting": "[16]", "result": 6.4, "unit": "µM"}]}, {"compound": "CCOc1ccc2nc3ccc(=O)cc-3oc2c1", "note": "[ethoxyresorufin]", "values": [{"measurement": "Km", "setting": "[17]", "result": 0.227, "unit": "µM"}]}, {"compound": "CC1(C)C(C(=O)OC(C#N)c2cccc(Oc3ccccc3)c2)C1(C)C", "note": "(stereo not shown) [fenpropathrin]", "values": [{"measurement": "Effect on hepatic CYP1A", "setting": "[18]", "result": "potent inhibitor of CYP1A"}]}, {"compound": "CCOC(=O)CC(SP(=S)(OC)OC)C(=O)OCC", "note": "(stereo not shown) [malathion]", "values": [{"measurement": "IC50", "setting": "[15]", "result": 2500, "unit": "nM"}]}, {"compound": "Cc1ncc2n1-c1ccc(Cl)cc1C(c1ccccc1F)=NC2", "note": "[midazolam]", "values": [{"measurement": "Km", "setting": "[19]", "result": 22, "unit": "µM"}]}, {"compound": "CC1(C)C(C=C(Cl)Cl)C1C(=O)OCc1cccc(Oc2ccccc2)c1", "note": "(stereo not shown) [permethrin]", "values": [{"measurement": "Effect on hepatic CYP1A", "setting": "[18]", "result": "potent inhibitor of CYP1A"}]}, {"compound": "CCOC(=O)C(SP(=S)(OC)OC)c1ccccc1", "note": "(stereo not shown) [phenthoate]", "values": [{"measurement": "IC50", "setting": "[2]", "result": "~3000", "unit": "nM"}]}, {"compound": "CCCSP(=O)(OCC)Oc1ccc(Br)cc1Cl", "note": "(stereo not shown) [profenofos]", "values": [{"measurement": "IC50", "setting": "[4]", "result": "~3000", "unit": "nM"}]}, {"compound": "CCCCNC(=O)NS(=O)(=O)c1ccc(C)cc1", "note": "[tolbutamide]", "values": [{"measurement": "Km", "setting": "[20]", "result": 1910, "unit": "µM"}]}, {"compound": "CCCCSP(=O)(SCCCC)SCCCC", "note": "[tribufos, S,S,S-tri-n-butyl phosphorotrithioate]", "values": [{"measurement": "Increase of CYP content in hepatic microsomes", "setting": "[21]", "result": "2–3 fold"}]}]}
